Consider one compound from publication PMC8894198, “Biosynthetic Microcin J25 Exerts Strong Antibacterial, Anti-Inflammatory Activities, Low Cytotoxicity Without Increasing Drug-Resistance to Bacteria Target” (Frontiers in Immunology, 2022).

Where a SMILES comes first, the peptide text is derived from it. Bridges are numbered along the chain shown (N, C = ends).

For test [1], the system named is E. coli O111:B4 LPS-challenged BALB/c mice. The experiment in a line: LPS-challenged mice experiment (septicemia model). In kind it is in vivo. Here is the method:
Female BALB/c mice (5-6 weeks) was provided by HFK Bioscience Co. (Beijing, China). All mice were raised in laminar flow cabinets and housed individually in a room with strictly controlled temperature and humidity, where a 12-hour light and 12-hour dark cycle was implemented, and mice had free access to food and water throughout the experimental period.
E. coli O111:B4 LPS (Sigma-Aldrich) at a concentration of 15 mg/L was injected into the peritoneal cavity of female BALB/c mice (age 7 weeks, weight 15 ± 0.5 g), and approximately 30 min after the challenge of E. coli O111:B4 LPS, MccJ25 was orally gavaged to the mice at a concentration of 4.55 or 9.1 mg per kg body weight (BW). The concentrations of MccJ25 were selected based on our previous study ([24]). Mice were followed for 72 h to test the survival rate of mice that were later sacrificed. However, for LPS treated mice, when the lifespan of the mice was around 50%, the mice were sacrificed. The serum from mice were obtained. The lung, liver, spleen, jejunum, and ileum were harvested, kept in liquid nitrogen immediately, stored at -80°C until analysis. For histopathological assessment, tissues and organs were fixed using 4% paraformaldehyde, hematoxylin eosin (H&E) was applied to examine the histological and pathological changes according to the standard protocol as described previously ([24]).
In the LPS-challenged mice experiment, lifespan of mice was monitored for 72 h. In the cocktail of MDR E. coli strains infection experiment, BW change, rectal temperature, diarrhea scores and fecal image, or survival rate were measured. For the diarrhea score evaluation producer was referred to previous study ([24]).
The concentrations of tumor necrosis factor-α (TNF-α), interleukin-6 (IL-6), IL-4, interferon (IFN)-γ, and nitric oxide (NO) in serum were measured. In addition, TNF-α and NO levels were also measured in the supernatant of RAW264.7 cells. ELISA was performed using a commercial ELISA kit (eBioscience, San Diego, USA). LPS levels in plasma were analyzed using the QCL-1000 kit (Xiamen, China) based on the manufacturer’s standards. On the day of sacrifice, eyes were extracted with ethylenediaminetetraacetic acid (EDTA), and blood was collected into clean test tubes. Peripheral hemograms and white blood cells (WBCs) were analyzed using a Coulter LH755 hematology analyzer. The levels of serum D-lactate were measured using ELISA kit (Jiancheng, Nanjing, China) according to the manufacturer’s protocols.
The extent and mRNA expression levels of TNF-α, IL-6, IL-10, IL-1β, IFN-γ, and TLR4, and NF-κB in each body part of the jejunum, ileum, colon, and spleen and in RAW264.7 cells were clarified by RT–PCR as previously described ([31]). Primers for TNF-α, IL-6, IL-10, IL-1β, IFN-γ, TLR4, and NF-κB are described in Table S1 . The specific assay steps were as follows: total RNA was extracted from the jejunum, ileum, spleen, and cells by TRIzol reagent (Invitrogen, Carlsbad, CA). Combined with gel electrophoresis and a NanoDrop 2000 spectrophotometer (Thermo Fisher Scientific, Wilmington, DE), the quality and quantity of total RNA were determined. […] Then the 2^-ΔΔCt method was used for the next step of analysis.
Frozen tissue samples and fresh cells were homogenized in RIPA lysis buffer containing protease inhibitors (Applygen, Beijing, China). Protein levels were determined using a BCA protein assay kit (Thermo Fisher Scientific, Rockford, IL). Thirty micrograms of tissue and cell protein samples were electrophoresed on SDS polyacrylamide gels and electrotransferred to PVDF membranes (Millipore). […]

Another test deals with plasmid DNA (pGEM-bGAL). Conditions: 400 ng plasmid DNA, 1 h room temperature, 1% agarose gel. Here is the method: Based on the previously worked out method ([27]), briefly, gel retardation experiments were carried out, in which 400 ng of plasmid DNA (pGEM-bGAL; Promega) was increasingly bound to […] of binding buffer in MccJ25 binding and incubated for 1 h at room temperature. Then, […] of local loading buffer in each sample was […], and a 12 μL aliquot was bound to a 1% agarose gel. Finally, 0.5× Tris-borate-EDTA buffer was used for electrophoresis.

On to `CC[C@H](C)[C@H](NC(=O)CNC(=O)[C@@H](NC(=O)[C@H](Cc1ccccc1)NC(=O)[C@H](Cc1ccc(O)cc1)NC(=O)[C@@H]1CCC(=O)NCC(=O)NCC(=O)N[C@@H](C)C(=O)NCC(=O)N[C@@H](Cc2c[nH]cn2)C(=O)N[C@@H](C(C)C)C(=O)N2CCC[C@H]2C(=O)N1)C(C)C)C(=O)NCC(=O)N[C@H](C(=O)N1CCC[C@H]1C(=O)N[C@H](C(=O)N[C@@H](CO)C(=O)N[C@@H](Cc1ccccc1)C(=O)N[C@@H](Cc1ccc(O)cc1)C(=O)NCC(=O)O)[C@@H](C)CC)[C@@H](C)O` [MccJ25, microcin J25] (GGAGHVPEYFVGIGTPISFYG-OH; lactam N-8 (inferred); C-terminus assumed), for which the “jejunum and ileum histopathology” value was “moderate villus damage and epithelial cell sloughing” in test [1] (4.55 mg/kg BW); “few changes in the villi, crypts and intestinal mucosa” in test [1] (9.1 mg/kg BW, compared with the control group). Further, the “serum levels of TNF-α, IL-6 and NO” value in test [1] (ELISA, after LPS treatment) is listed as “showed a decreasing trend”. Moreover, the lung histopathology result in test [1] (H&E) is “partially reverse swelling and lung damage”. Besides, in test [1] (H&E, MccJ25 30 min after LPS), the “liver and spleen histopathology” value was “substantially reduced the degree of edema and degradation of cytoplasmic proteins”. In addition, in test [1] (different concentrations of MccJ25 vs LPS group), the WBC count entry is given as “significantly reduce the counts of leukocytes”. Also, the “TNF-α, TLR4 and IL-6 mRNA expression” value in test [1] (ileum, colon, or spleen, q-PCR) is listed as “significantly decreased”. For the same compound, the “plasma LPS concentrations” value in test [1] (vs mice treated with LPS only) is “significantly decreased”. Besides, in test [1] (western blot, vs LPS-infected group), the “phosphorylated NF-κB, p38 MAPK and IκB protein expression” value is listed as “significantly decreased”. Moreover, the “weight ratio (MccJ25:DNA) at which DNA migration was slightly inhibited” value with plasmid DNA (pGEM-bGAL) is given as “above 2.0”.
